Source: article PMC10547238, “Discovery of Potent Tetrazole Free Fatty Acid Receptor 2 Antagonists” (Journal of Medicinal Chemistry, 2023)
In brackets after ≈: the same amount, converted by molar mass. Several values for one entry are separate records, joined by “and”; a condition that tells them apart may be missing. Equal values may be shown once. Read-outs that look alike come from different tables or passages of the source.

Legend:
[1] = Kinetic aqueous solubility; format: physicochemical; settings: phosphate buffer; kinetic solubility in PBS at pH 7.4 and 25 °C
Experimental: Twenty microliters of a 10 mM compound stock solution in DMSO was added to an Eppendorf tube containing 980 μL of phosphate buffer (10 mM, pH = 7.4). The samples were incubated in an Eppendorf Thermomixer (25 °C, 800 rpm) for 24 h. Afterward, the samples were centrifuged for 5 min at 11,000 rpm and the supernatant was filtered (0.2 μm PTFE membrane) before analysis by HPLC. Each compound was analyzed in duplicate. The solubility was calculated from the peak area relative to the reference samples (200 μM in MeOH/MilliQ H2O, 60/40, v/v).

[2] = Lipophilicity (logD7.4), octanol/PBS7.4 shake flask; format: physicochemical; settings: 1-octanol/PBS7.4, pH 7.4; mean of two independent experiments
Experimental: The assay was performed in duplicates essentially as previously described.[58] A glass vial with a screw cap (8 mL) was charged with the test compound (40 μL, 10 mM in DMSO), PBS7.4 (0.01 M, 1980 μL), and 1-octanol (1980 μL). The vial was capped and sealed with a Parafilm and shaken at 700 rpm using an IKA KS 125 basic shaker for 24 h at 25 °C. The Parafilm was removed, and the sample was allowed to equilibrate for 1 h before analysis. One hundred microliters of the octanol phase was withdrawn and diluted 1:10 with MeOH (+0.1% TFA)/MilliQ water (4:1, v/v) and analyzed by HPLC. The interface was removed, and the PBS7.4 phase analyzed directly by HPLC. All analysis was performed in duplicates, and log D7.4 values were calculated from the peak areas (mAU·min) and adjusted for difference in injection volume and concentration-absorption effects from the solvents, using two calibration points per compound per solvent, and dilution of the octanol phase.

[3] = target: T1, hFFA2 (Homo sapiens, UniProt O15552); assay: cAMP assay, antagonist mode, Flp-In T-Rex 293 cells expressing hFFA2-eYFP; format: cell-based; settings: for cAMP pIC50: hFFA2, antagonist mode, propionate at EC80, mean ± SEM, three or more experiments; for LLEcAMP: pIC50, cAMP – ClogP; for LLEcAMP-logD: pIC50, cAMP – logD7.4
T1 construct: expressed in transfected cells; host or cells: Flp-In T-Rex 293 cells, doxycycline-induced
T1 sequence (O15552 1-330): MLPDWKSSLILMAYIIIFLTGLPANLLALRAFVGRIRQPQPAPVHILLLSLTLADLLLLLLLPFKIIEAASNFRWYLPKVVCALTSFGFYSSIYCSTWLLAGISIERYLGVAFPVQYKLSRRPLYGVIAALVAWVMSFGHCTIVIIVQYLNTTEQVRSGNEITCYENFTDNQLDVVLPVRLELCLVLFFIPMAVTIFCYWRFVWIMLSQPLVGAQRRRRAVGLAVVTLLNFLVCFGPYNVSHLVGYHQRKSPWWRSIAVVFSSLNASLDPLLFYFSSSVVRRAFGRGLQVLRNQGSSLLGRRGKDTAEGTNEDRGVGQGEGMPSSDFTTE
Experimental: (§1) The activity of the compounds on FFA2 was evaluated in two different functional antagonist assays, both using propionate at EC80 as the agonist. The GTPγS assay reflects receptor activation by directly assessing G protein recruitment, whereas the cAMP assay, performed in whole cells, reflects a physiologically relevant downstream second messenger.
The hFFA2-eYFP and hFFA3-eYFP Flp-In T-Rex 293 cell lines were maintained in Dulbecco’s modified Eagle mMedium (DMEM, ThermoFisher #11965092) supplemented with 10% (v/v) fetal bovine serum, 100 U/mL penicillin, 100 μg/mL streptomycin, 5 μg/mL blasticidin S, and 200 μg/mL hygromycin B and incubated at 37 °C and 5% CO2 in a humidified incubator. Cells were passaged at 70–80% confluency.
To determine the compound’s ability to activate or inhibit the Gi-coupled FFA2 or FFA3, intracellular cAMP concentrations were determined using Flp-In T-Rex293 cells induced to express hFFA2-eYFP or hFFA3-eYFP. Experiments were carried out using a homogeneous time-resolved FRET-based detection kit (CisBio, PerkinElmer #62AM9PEC) according to the manufacturer’s protocol. The day before the assay, 10,000 cells/well were plated in DMEM supplemented with penicillin/streptomycin (100 units/mL and […], respectively), 5 μg/mL blasticidin S, and 200 μg/mL hygromycin B in 96-well cell culture microplates (Greiner Bio-One) and induced to express hFFA2-eYFP or hFFA3-YFP with 100 ng/mL doxycycline.
In antagonist mode, the cells were pre-incubated for 20 min with antagonist test compounds in HBSS together with 50 μM IBMX at rt. Then, the cells were further incubated for 25 min at rt in HBSS with the agonist compound, sodium propionate at EC80 (51.4 μM for FFA2, 13.2 μM for FFA3), and 3 μM forskolin. Reactions were stopped, and the output was measured with an Envision plate reader using a time-resolved fluorescence protocol, measuring the light emission at 620 and 665 nm. All analyses were performed in triplicate and analyzed using GraphPad Prism (version 9).

[4] = target: T2, human FFA2-eYFP (Homo sapiens, UniProt O15552); assay: [35S]GTPγS incorporation assay, membranes of Flp-In T-Rex 293 cells; format: biochemical; settings: for GTPγS pIC50: hFFA2, propionate at EC80, mean ± SEM, three or more experiments; for LLEGTPγS: pIC50, GTPγS – ClogP
T2 construct: expressed in transfected cells; host or cells: membranes of Flp-In T-Rex 293 cells induced to express the construct
T2 sequence (O15552 1-330): T1 sequence (O15552 1-330)
Experimental: as §1
Functional activity of the compounds were tested in a [^35S]GTPγS incorporation assay using membranes of Flp-In T-Rex 293 cells induced to express human FFA2-eYFP. […] The reaction was initiated by addition of [^35S]GTPγS (100 nCi per reaction) containing 1 μM GDP and incubated at 30 °C for 60 min. The reaction was terminated by rapid vacuum filtration through GF/C glass fiber filter-bottom 96-well microplates (PerkinElmer Life Sciences, Beaconsfield, UK) using a UniFilter FilterMate Harvester (PerkinElmer). Unbound radioligands were removed from filters by three washes with ice-cold PBS. MicroScint-20 (PerkinElmer) was added to dried filters, and [^35S]GTPγS binding was quantified by liquid scintillation spectroscopy.

solubility at 24 h [1]	logD at 25 h [2]	cAMP pIC50 [3]	LLEcAMP [3]	LLEcAMP-logD [3]	GTPγS pIC50 [4]	LLEGTPγS [4]	IC50 ([3]; inhibition of propionate at FFA2, read-out: IC50 in cAMP assay)	IC50 ([4]; inhibition of propionate at FFA2)	IC50 ([3]; supplementary CSV, read-out: hFFA2 cAMP (pIC50) (converted))	increase in potency ([3]; vs 16s, assay not specified)	SMILES
166 µM (≈ 66.4 µg/mL)	1.39 ± 0.01	6.96 ± 0.07	2.75	5.57	6.68 ± 0.05	2.47					O=C(O)C[C@H](Cc1ccc(C(F)(F)F)cc1)NC(=O)Cc1cccc(Cl)c1 [Compound 3, reference compound]
176 µM (≈ 73.8 µg/mL)	0.84 ± 0.01	8.35 ± 0.15	5.87	7.5 and 7.51	8.46 ± 0.05	5.98	3 to 4 nM and 4 nM	3 to 4 nM and 4 nM			COc1cccc(CC(=O)N[C@@H](Cc2ccc(C(F)(F)F)cc2)Cc2nnn[nH]2)c1 [Compound 16l, (S)-N-(1-(1H-Tetrazol-5-yl)-3-(4-(trifluoromethyl)phenyl)propan-2-yl)-2-(3-methoxyphenyl)acetamide]
183 µM (≈ 85.9 µg/mL)	0.71 ± 0.06	7.83 ± 0.14	5.90	7.1 and 7.12	8.21 ± 0.09	6.28			10.2 nM	9 fold	O=C(Cc1cncc(Br)c1)N[C@@H](Cc1ccc(C(F)(F)F)cc1)Cc1nnn[nH]1 [Compound 16w, (S)-3-(2-((1-(1H-Tetrazol-5-yl)-3-(4-(trifluoromethyl)phenyl)propan-2-yl)amino)-2-oxoethyl)-5-bromopyridin-1-ium 2,2,2-trifluoroacetate]
